# According to PubChem BioAssay (NCI):
#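 The compound was tested at five concentrations on cells cultured in 96-well plates, with a 48-hour exposure period. TGI denotes the concentration required for complete inhibition of growth.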
# Assays:
# Test in all cases: growth of human tumour cells (NCI), 48 h
# [1] = tested on: 786-0 renal
# [2] = tested on: A498 renal
# [3] = tested on: A549 NSCLC
# [4] = tested on: ACHN renal
# [5] = tested on: BT-549 breast
# [6] = tested on: CAKI-1 renal
# [7] = tested on: CCRF-CEM leukemia
# [8] = tested on: COLO 205 colon
# [9] = tested on: DU-145 prostate
# [10] = tested on: EKVX NSCLC
# [11] = tested on: HCC-2998 colon
# [12] = tested on: HCT-116 colon
# [13] = tested on: HCT-15 colon
# [14] = tested on: HL-60(TB) leukemia
# [15] = tested on: HOP-62 NSCLC
# [16] = tested on: HOP-92 NSCLC
# [17] = tested on: HS 578T breast
# [18] = tested on: HT29 colon
# [19] = tested on: IGROV1 ovarian
# [20] = tested on: K-562 leukemia
# [21] = tested on: KM12 colon
# [22] = tested on: LOX IMVI melanoma
# [23] = tested on: M14 melanoma
# [24] = tested on: MALME-3M melanoma
# [25] = tested on: MCF7 breast
# [26] = tested on: MDA-MB-231 breast
# [27] = tested on: MDA-MB-435
# [28] = tested on: MDA-N
# [29] = tested on: MOLT-4 leukemia
# [30] = tested on: NCI-H226 lung
# [31] = tested on: NCI-H23 lung
# [32] = tested on: NCI-H460 lung
# [33] = tested on: NCI-H522 lung
# [34] = tested on: NCI/ADR-RES ovarian
# [35] = tested on: OVCAR-3 ovarian
# [36] = tested on: OVCAR-4 ovarian
# [37] = tested on: OVCAR-5 ovarian
# [38] = tested on: OVCAR-8 ovarian
# [39] = tested on: PC-3 prostate
# [40] = tested on: RPMI-8226 leukemia
# [41] = tested on: RXF 393 renal
# [42] = tested on: SF-268 CNS
# [43] = tested on: SF-295 CNS
# [44] = tested on: SF-539 CNS
# [45] = tested on: SK-MEL-2 melanoma
# [46] = tested on: SK-MEL-28 melanoma
# [47] = tested on: SK-MEL-5 melanoma
# [48] = tested on: SK-OV-3 ovarian
# [49] = tested on: SN12C renal
# [50] = tested on: SNB-19 CNS
# [51] = tested on: SNB-75 CNS
# [52] = tested on: SR leukemia
# [53] = tested on: SW-620 colon
# [54] = tested on: T-47D breast
# [55] = tested on: TK-10 renal
# [56] = tested on: U251 CNS
# [57] = tested on: UACC-257 melanoma
# [58] = tested on: UACC-62 melanoma
# [59] = tested on: UO-31 renal
smiles,measurement,setting,value
C=C1c2nc3ccccc3n2C=C(c2ccc(C)cc2)N1c1ccccc1,TGI,[1],> 59.9 µM
same,TGI,[2],> 100 µM
same,TGI,[3],> 100 µM
same,TGI,[4],> 100 µM
same,TGI,[5],> 86.7 µM
same,TGI,[6],> 100 µM
same,TGI,[7],> 54.8 µM
same,TGI,[8],> 33.2 µM
same,TGI,[9],> 100 µM
same,TGI,[10],> 40.6 µM
same,TGI,[11],10.7 µM
same,TGI,[12],> 81 µM
same,TGI,[13],> 38 µM
same,TGI,[14],16.3 µM
same,TGI,[15],> 100 µM
same,TGI,[16],> 100 µM
same,TGI,[17],> 30.6 µM
same,TGI,[18],9.77 µM
same,TGI,[19],> 100 µM
same,TGI,[20],> 100 µM
same,TGI,[21],22 µM
same,TGI,[22],66 µM
same,TGI,[23],> 61.2 µM
same,TGI,[24],> 43.3 µM
same,TGI,[25],> 100 µM
same,TGI,[26],> 53.6 µM
same,TGI,[27],10.7 µM
same,TGI,[28],4.39 µM
same,TGI,[29],99 µM
same,TGI,[30],15.3 µM
same,TGI,[31],> 100 µM
same,TGI,[32],27.1 µM
same,TGI,[33],25.2 µM
same,TGI,[34],> 29.1 µM
same,TGI,[35],> 40.9 µM
same,TGI,[36],> 100 µM
same,TGI,[37],> 100 µM
same,TGI,[38],> 63.4 µM
same,TGI,[39],> 79.5 µM
same,TGI,[40],> 34.5 µM
same,TGI,[41],> 44 µM
same,TGI,[42],> 100 µM
same,TGI,[43],13.6 µM
same,TGI,[44],7.46 µM
same,TGI,[45],> 46.1 µM
same,TGI,[46],> 100 µM
same,TGI,[47],31.9 µM
same,TGI,[48],> 100 µM
same,TGI,[49],> 100 µM
same,TGI,[50],> 100 µM
same,TGI,[51],15.9 µM
same,TGI,[52],6.82 µM
same,TGI,[53],> 100 µM
same,TGI,[54],> 100 µM
same,TGI,[55],> 100 µM
same,TGI,[56],68.2 µM
same,TGI,[57],> 100 µM
same,TGI,[58],> 100 µM
same,TGI,[59],> 100 µM
Cc1cc(N(CCC#N)CCC#N)ccc1/C=N/NC(=O)c1ccccc1,TGI,[1],> 100 µM
same,TGI,[2],65.4 µM
same,TGI,[3],> 100 µM
same,TGI,[4],> 100 µM
same,TGI,[5],> 100 µM
same,TGI,[6],> 100 µM
same,TGI,[7],98.1 µM
same,TGI,[8],> 100 µM
same,TGI,[9],> 86.2 µM
same,TGI,[10],> 100 µM
same,TGI,[11],55.1 µM
same,TGI,[12],> 92.6 µM
same,TGI,[13],> 100 µM
same,TGI,[14],> 27.2 µM
same,TGI,[15],> 100 µM
same,TGI,[16],> 100 µM
same,TGI,[17],> 56.5 µM
same,TGI,[18],14.2 µM
same,TGI,[19],> 100 µM
same,TGI,[20],> 100 µM
same,TGI,[21],> 100 µM
same,TGI,[22],> 100 µM
same,TGI,[23],> 100 µM
same,TGI,[24],> 100 µM
same,TGI,[25],> 100 µM
same,TGI,[26],> 81.3 µM
same,TGI,[27],> 38.9 µM
same,TGI,[28],10.6 µM
same,TGI,[29],> 100 µM
same,TGI,[30],84.1 µM
same,TGI,[31],> 100 µM
same,TGI,[32],> 100 µM
same,TGI,[33],39.3 µM
same,TGI,[34],36.1 µM
same,TGI,[35],> 84 µM
same,TGI,[36],> 100 µM
same,TGI,[37],> 100 µM
same,TGI,[38],> 82.8 µM
same,TGI,[39],> 100 µM
same,TGI,[40],> 100 µM
same,TGI,[41],> 100 µM
same,TGI,[42],> 100 µM
same,TGI,[43],> 100 µM
same,TGI,[44],47.5 µM
same,TGI,[45],> 100 µM
same,TGI,[46],> 100 µM
same,TGI,[47],> 100 µM
same,TGI,[48],> 100 µM
same,TGI,[49],> 100 µM
same,TGI,[50],> 100 µM
same,TGI,[51],> 100 µM
same,TGI,[52],> 43.2 µM
same,TGI,[53],> 100 µM
same,TGI,[54],> 100 µM
same,TGI,[55],> 100 µM
same,TGI,[56],> 100 µM
same,TGI,[57],> 100 µM
same,TGI,[58],> 100 µM
same,TGI,[59],> 100 µM
Cc1ccc(NC(=O)CC(=O)N2N=C(N(C)c3ccccc3)CC2c2ccccc2)cc1 (configuration not stated),TGI,[1],> 100 µM
same,TGI,[2],> 100 µM
same,TGI,[3],> 100 µM
same,TGI,[4],> 100 µM
same,TGI,[5],> 100 µM
same,TGI,[6],> 100 µM
same,TGI,[7],> 100 µM
same,TGI,[8],> 100 µM
same,TGI,[9],> 100 µM
same,TGI,[10],> 100 µM
same,TGI,[11],> 100 µM
same,TGI,[12],> 100 µM
same,TGI,[13],> 100 µM
same,TGI,[14],> 100 µM
same,TGI,[15],> 100 µM
same,TGI,[16],> 100 µM
same,TGI,[17],> 100 µM
same,TGI,[18],> 100 µM
same,TGI,[19],> 100 µM
same,TGI,[20],> 100 µM
same,TGI,[21],> 100 µM
same,TGI,[22],> 100 µM
same,TGI,[23],> 100 µM
same,TGI,[24],> 100 µM
same,TGI,[25],> 100 µM
same,TGI,[26],> 100 µM
same,TGI,[27],> 100 µM
same,TGI,[28],> 100 µM
same,TGI,[29],> 100 µM
same,TGI,[30],> 100 µM
same,TGI,[31],> 100 µM
same,TGI,[32],> 100 µM
same,TGI,[33],> 100 µM
same,TGI,[34],> 100 µM
same,TGI,[35],> 100 µM
same,TGI,[36],> 100 µM
same,TGI,[37],> 100 µM
same,TGI,[38],> 100 µM
same,TGI,[39],> 100 µM
same,TGI,[40],> 100 µM
same,TGI,[41],> 100 µM
same,TGI,[42],> 100 µM
same,TGI,[43],> 100 µM
same,TGI,[44],> 100 µM
same,TGI,[45],> 100 µM
same,TGI,[46],> 100 µM
same,TGI,[47],> 100 µM
same,TGI,[48],> 100 µM
same,TGI,[49],> 100 µM
same,TGI,[50],> 100 µM
same,TGI,[51],77.9 µM
same,TGI,[52],> 100 µM
same,TGI,[53],> 100 µM
same,TGI,[54],> 100 µM
same,TGI,[55],> 100 µM
same,TGI,[56],> 100 µM
same,TGI,[57],> 100 µM
same,TGI,[58],> 100 µM
same,TGI,[59],> 100 µM
